# Source: paper PMC5780493, “Epsin and Sla2 form assemblies through phospholipid interfaces” (Nature Communications, 2018)
# T1: ANTHSla2 (S. cerevisiae) (Saccharomyces cerevisiae, UniProt P33338)
# T1 construct: gene SLA2; ANTH domain (N-terminal); purified recombinant
# T1 sequence (P33338 1-360 limits assumed): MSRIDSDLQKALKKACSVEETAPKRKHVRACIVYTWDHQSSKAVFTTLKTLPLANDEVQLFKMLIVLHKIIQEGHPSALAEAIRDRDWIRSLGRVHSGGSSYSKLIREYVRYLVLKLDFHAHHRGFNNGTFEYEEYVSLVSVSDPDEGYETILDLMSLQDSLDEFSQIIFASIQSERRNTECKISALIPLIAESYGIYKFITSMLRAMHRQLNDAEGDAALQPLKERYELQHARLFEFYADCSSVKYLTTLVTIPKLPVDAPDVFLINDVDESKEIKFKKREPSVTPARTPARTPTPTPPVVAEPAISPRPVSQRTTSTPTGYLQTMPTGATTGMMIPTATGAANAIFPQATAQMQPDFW
# T2: human epsin-1 ENTH (EPN1) (Homo sapiens, UniProt Q9Y6I3)
# T2 construct: ENTH domain aa 1-158, extra Gly after start Met; E. coli His-GST fusion, tag cut with TEV; hexamer with PIP2
# T2 sequence (Q9Y6I3 1-158): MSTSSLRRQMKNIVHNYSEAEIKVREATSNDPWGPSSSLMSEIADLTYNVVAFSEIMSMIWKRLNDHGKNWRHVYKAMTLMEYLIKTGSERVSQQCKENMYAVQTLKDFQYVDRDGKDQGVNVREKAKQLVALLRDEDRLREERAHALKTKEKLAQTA
# T3: ENTH2 (Ent2 ENTH domain, S. cerevisiae) (Saccharomyces cerevisiae, UniProt Q05785)
# T3 construct: ENTH domain (N-terminal); purified recombinant; two domains sandwich one PIP2 in the crystal
# T3 sequence (Q05785 1-156): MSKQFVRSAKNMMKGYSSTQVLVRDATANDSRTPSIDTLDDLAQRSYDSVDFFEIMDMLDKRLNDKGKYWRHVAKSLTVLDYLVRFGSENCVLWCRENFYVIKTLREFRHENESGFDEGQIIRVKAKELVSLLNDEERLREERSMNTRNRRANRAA
# T4: human epsin-1 ENTH/Hip1R ANTH complex (Homo sapiens, UniProt O75146+Q9Y6I3)
# T4 construct: gene EPN1; EPN1 aa 1-158 (extra Gly after Met) and Hip1R aa 1-300; His-GST tags cut with TEV; 6:0 to 8:8, mainly 6:6
# T4 sequence (Q9Y6I3 1-158): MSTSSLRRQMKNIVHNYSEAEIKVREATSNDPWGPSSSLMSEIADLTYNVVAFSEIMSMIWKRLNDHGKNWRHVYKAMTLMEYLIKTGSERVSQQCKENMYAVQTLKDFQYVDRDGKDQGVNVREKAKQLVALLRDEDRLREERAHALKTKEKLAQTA
# T4 sequence (O75146 1-300): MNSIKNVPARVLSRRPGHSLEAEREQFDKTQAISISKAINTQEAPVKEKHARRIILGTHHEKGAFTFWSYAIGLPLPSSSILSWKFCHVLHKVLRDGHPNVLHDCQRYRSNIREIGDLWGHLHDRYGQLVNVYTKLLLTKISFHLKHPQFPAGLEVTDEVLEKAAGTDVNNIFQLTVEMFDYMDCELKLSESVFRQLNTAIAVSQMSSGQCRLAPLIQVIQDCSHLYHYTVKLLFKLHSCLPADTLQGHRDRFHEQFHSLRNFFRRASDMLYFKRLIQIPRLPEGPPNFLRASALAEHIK
# T5: ENTH1 (Ent1 ENTH domain, S. cerevisiae) (Saccharomyces cerevisiae, UniProt Q12518)
# T5 construct: ENTH domain (N-terminal); purified recombinant
# T5 sequence (Q12518 1-154): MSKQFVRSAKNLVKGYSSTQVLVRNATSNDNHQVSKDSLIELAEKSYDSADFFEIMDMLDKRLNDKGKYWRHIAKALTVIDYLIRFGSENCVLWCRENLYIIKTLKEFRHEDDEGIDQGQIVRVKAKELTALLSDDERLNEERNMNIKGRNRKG
# T6: ENTH1 (Ent1 ENTH domain, S. cerevisiae) (Saccharomyces cerevisiae, UniProt Q12518, T104E)
# T6 construct: ENTH domain (N-terminal); purified recombinant
# T6 sequence (Q12518 1-154 T104E): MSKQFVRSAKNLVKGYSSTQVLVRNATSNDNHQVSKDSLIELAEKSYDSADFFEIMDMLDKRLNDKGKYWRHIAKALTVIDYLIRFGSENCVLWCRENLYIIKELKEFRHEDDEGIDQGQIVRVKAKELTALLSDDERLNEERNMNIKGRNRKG
# T7: CALM ANTH domain (Homo sapiens, UniProt Q13492)
# T7 construct: gene PICALM; ANTH domain; E. coli, N-terminal His6 tag cut with TEV
# T7 sequence (Q13492 1-289 limits assumed): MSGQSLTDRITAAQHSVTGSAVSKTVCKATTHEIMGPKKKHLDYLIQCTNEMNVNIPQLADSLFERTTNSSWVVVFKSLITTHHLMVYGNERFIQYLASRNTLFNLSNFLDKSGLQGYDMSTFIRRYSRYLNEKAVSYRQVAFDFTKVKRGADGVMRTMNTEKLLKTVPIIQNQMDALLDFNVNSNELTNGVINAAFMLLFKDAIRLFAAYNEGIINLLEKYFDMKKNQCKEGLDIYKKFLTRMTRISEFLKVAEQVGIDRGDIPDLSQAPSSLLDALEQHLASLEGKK
# T8: ENTH (epsin ENTH domain, C. thermophilum) (Thermochaetoides thermophila, UniProt G0SAK2)
# T8 construct: ENTH domain; E. coli, N-terminal His6 tag cut with TEV
# T8 sequence (G0SAK2 with tags, fused parts or gaps): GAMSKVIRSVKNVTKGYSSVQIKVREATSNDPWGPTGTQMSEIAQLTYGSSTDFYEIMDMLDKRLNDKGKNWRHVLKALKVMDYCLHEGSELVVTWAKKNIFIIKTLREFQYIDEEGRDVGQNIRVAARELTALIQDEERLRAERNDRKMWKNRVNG
# T9: Epsin (Ent1) ENTH (Saccharomyces cerevisiae, UniProt Q12518)
# T9 chain: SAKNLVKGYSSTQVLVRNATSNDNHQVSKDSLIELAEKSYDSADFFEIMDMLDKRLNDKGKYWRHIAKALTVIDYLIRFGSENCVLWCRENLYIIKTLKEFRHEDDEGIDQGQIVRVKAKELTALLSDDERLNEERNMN
# Assays:
# ANTHSla2 (S. cerevisiae) [1] = target: T1, ANTHSla2 (S. cerevisiae); assay: native MS titration, corrected for unspecific binding; conditions: ammonium acetate 300 mM, 1 mM DTT, pH 8.0; 10 uM protein, 60 uM PIP2; two sites, positive cooperativity
# [2] = target: T2, human epsin-1 ENTH (EPN1); assay: native MS; SAXS; type: binding; conditions: hexamer formation with PIP2; SAXS in 20 mM Tris-HCl pH 8.0, 250 mM NaCl, 0.2 mM PIP2
# ANTHSla2 (S. cerevisiae) [3] = target: T1, ANTHSla2 (S. cerevisiae); assay: native MS titration, corrected for unspecific binding; conditions: ammonium acetate 300 mM, 1 mM DTT, pH 8.0; 10 uM protein, 60 uM PIP2; second site (canonical site removed)
# [4] = target: T3, ENTH2 (Ent2 ENTH domain, S. cerevisiae); assay: X-ray crystal structure, […] A; type: binding; conditions: 0.1 M MES pH 6.5, 1.45 M ammonium sulfate; canonical phosphoinositide pocket, dimer interface
# [5] = target: T4, human epsin-1 ENTH/Hip1R ANTH complex; assay: native MS of assembled complex; type: binding; conditions: ammonium acetate 300 mM, 1 mM DTT, pH 8.0; 10 uM ENTH, 10 uM ANTH, 60 uM PIP2; stoichiometry
# [6] = target: T5, ENTH1 (Ent1 ENTH domain, S. cerevisiae); assay: native MS titration, corrected for unspecific binding; conditions: ammonium acetate 300 mM, 1 mM DTT, pH 8.0; 10 uM protein, 60 uM PIP2; two sites, positive cooperativity
# [7] = target: T6, ENTH1 (Ent1 ENTH domain, S. cerevisiae); assay: native MS; type: binding; conditions: ammonium acetate, 1 mM DTT, pH 8.0; 10 uM protein, 60 uM PIP2
# CALM ANTH domain = target: T7, CALM ANTH domain; assay: native MS titration, corrected for unspecific binding; conditions: ammonium acetate 300 mM, 1 mM DTT, pH 8.0; 10 uM protein, 60 uM PIP2; two sites, not cooperative
# [8] = target: T3, ENTH2 (Ent2 ENTH domain, S. cerevisiae); assay: as above; conditions: ammonium acetate 300 mM, 1 mM DTT, pH 8.0; 10 uM protein, 60 uM PIP2; two sites, positive cooperativity
# [9] = target: T8, ENTH (epsin ENTH domain, C. thermophilum); assay: as above; conditions: ammonium acetate 300 mM, 1 mM DTT, pH 8.0; 10 uM protein, 60 uM PIP2; two sites, positive cooperativity
# [10] = target: T10, ANTHSla2 (C. thermophilum), ANTHCh (Thermochaetoides thermophila, UniProt G0S106); assay: as above; conditions: ammonium acetate 300 mM, 1 mM DTT, pH 8.0; 10 uM protein, 60 uM PIP2; two sites
# T10 construct: gene CTHT_0011900; ANTH domain; E. coli, N-terminal His6 tag cut with TEV
# T10 sequence (G0S106 entry or part of it): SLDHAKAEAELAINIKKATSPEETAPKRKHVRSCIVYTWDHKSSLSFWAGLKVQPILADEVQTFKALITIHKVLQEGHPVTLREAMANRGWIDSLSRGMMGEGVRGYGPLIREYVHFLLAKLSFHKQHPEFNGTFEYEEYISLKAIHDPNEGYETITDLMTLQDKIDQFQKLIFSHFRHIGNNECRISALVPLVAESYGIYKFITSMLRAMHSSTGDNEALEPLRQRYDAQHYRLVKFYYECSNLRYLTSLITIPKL
# Epsin (Ent1) ENTH = target: T9, Epsin (Ent1) ENTH; assay: ITC
dissociation constant (ANTHSla2 (S. cerevisiae) [3]),"KD,1 / KD,2 (macroscopic) [6]","KD,1 / KD,2 (macroscopic) [8]",Kd (Epsin (Ent1) ENTH),Molecule,"KD,1 / KD,2 (macroscopic) (ANTHSla2 (S. cerevisiae) [1])",native MS; SAXS [2],"X-ray crystal structure, 3.35 A [4]",native MS of assembled complex [5],native MS [7],"KD,1 / KD,2 (macroscopic) (CALM ANTH domain)","KD,1 / KD,2 (macroscopic) [9]","KD,1 / KD,2 (macroscopic) [10]"
300 ± 70 µM,ENTH1 and ENTH2) from S. cerevisiae,ENTH1 and ENTH2) from S. cerevisiae,–,CCCCCCCC(=O)OC[C@H](COP(=O)(O)O[C@@H]1[C@H](O)[C@H](O)[C@@H](OP(=O)(O)O)[C@H](OP(=O)(O)O)[C@H]1O)OC(=O)CCCCCCC [PIP2],PIP2 dissociation constants are higher for Sla2 ANTH domains than for ENTH domains,A minimum of six PIP2 molecules is required for human ENTH hexamer formation,The structure shows two ENTH2 domains sandwiched around one PIP2 molecule,human epsin-1 ENTH domain with human Hip1R ANTH domain and PIP2,Thr104Glu mutant of ENTH1 from S. cerevisiae shows a reduction of PIP2 binding,macroscopic dissociation constants for CALM suggest higher affinity for the first PIP2-binding site,homologous epsin from C. thermophilum bind up to two PIP2 molecules per domain,"several ANTH domains, showing two PIP2 binding sites for all wild-type proteins"
–,–,–,450 nM,"Sla2 ANTH (protein, PIP2) MSRIDSDLQKALKKACSVEETAPKRKHVRACIVYTWDHQSSKAVFTTLKTLPLANDEVQLFKMLIVLHKIIQEGHPSALAEAIRDRDWIRSLGRVHSGGSSYSKLIREYVRYLVLKLDFHAHHRGFNNGTFEYEEYVSLVSVSDPDEGYETILDLMSLQDSLDEFSQIIFASIQSERRNTECKISALIPLIAESYGIYKFITSMLRAMHRQLNDAEGDAALQPLKERYELQHARLFEFYADCSSVKYLTTLVTIPKLPVDAPDVFLINDVDESKEIKFKKREPSVT",–,–,–,–,–,–,–,–
